Reference: US20240010726A1, “LFA-1 SIGNALLING MEDIATOR FOR USE IN CANCER THERAPY” (Universität Basel, priority 2020, published 2024)

Assays:
LFA-1 [1] = molecular target: T1, LFA-1 (Homo sapiens, UniProt P05107+P20701); test: LFA-1 conformations on REP T cells co-incubated with peptide-pulsed T2 target cells; format: cell-based; conditions: T2 cells pulsed with 10^−8 M 9c peptide; E:T 1:1; presence vs absence of extracellular Mg^2+
T1 construct: endogenous in cells; host or cells: primary human T cells from healthy donors: PHA-induced T cell blasts, sorted EM and naive CD8 T cells, and NY-ESO-1 TCR-transduced REP T cells
T1 sequence (P20701 26-1170): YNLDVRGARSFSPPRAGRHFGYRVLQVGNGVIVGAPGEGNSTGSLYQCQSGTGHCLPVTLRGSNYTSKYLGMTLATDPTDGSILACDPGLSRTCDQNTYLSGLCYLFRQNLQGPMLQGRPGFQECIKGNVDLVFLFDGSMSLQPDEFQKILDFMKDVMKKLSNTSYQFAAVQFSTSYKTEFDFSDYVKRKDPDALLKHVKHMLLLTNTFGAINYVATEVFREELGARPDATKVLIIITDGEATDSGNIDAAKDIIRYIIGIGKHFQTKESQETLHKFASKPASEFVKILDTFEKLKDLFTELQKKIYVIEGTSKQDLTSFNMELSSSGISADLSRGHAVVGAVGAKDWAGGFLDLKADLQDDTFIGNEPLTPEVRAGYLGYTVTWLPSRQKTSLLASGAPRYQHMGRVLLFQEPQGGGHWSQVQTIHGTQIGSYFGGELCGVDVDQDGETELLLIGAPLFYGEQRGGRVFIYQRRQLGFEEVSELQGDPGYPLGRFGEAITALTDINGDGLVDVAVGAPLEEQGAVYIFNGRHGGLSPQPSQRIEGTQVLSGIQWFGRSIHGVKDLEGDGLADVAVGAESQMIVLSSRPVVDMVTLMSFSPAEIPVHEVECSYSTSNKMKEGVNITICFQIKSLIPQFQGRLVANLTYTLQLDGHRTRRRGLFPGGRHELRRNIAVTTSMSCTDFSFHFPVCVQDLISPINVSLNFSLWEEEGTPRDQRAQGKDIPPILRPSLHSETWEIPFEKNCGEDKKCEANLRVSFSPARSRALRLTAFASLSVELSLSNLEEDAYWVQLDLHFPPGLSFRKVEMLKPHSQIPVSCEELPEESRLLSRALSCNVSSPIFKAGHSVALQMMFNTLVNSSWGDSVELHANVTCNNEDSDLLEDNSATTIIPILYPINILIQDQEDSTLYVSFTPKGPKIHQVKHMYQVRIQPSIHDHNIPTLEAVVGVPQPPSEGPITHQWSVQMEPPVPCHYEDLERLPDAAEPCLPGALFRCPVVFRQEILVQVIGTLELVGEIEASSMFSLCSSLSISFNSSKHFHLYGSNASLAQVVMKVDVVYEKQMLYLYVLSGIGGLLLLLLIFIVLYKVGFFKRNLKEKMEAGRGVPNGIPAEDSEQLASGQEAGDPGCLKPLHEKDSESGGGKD
T1 sequence (P05107 23-769): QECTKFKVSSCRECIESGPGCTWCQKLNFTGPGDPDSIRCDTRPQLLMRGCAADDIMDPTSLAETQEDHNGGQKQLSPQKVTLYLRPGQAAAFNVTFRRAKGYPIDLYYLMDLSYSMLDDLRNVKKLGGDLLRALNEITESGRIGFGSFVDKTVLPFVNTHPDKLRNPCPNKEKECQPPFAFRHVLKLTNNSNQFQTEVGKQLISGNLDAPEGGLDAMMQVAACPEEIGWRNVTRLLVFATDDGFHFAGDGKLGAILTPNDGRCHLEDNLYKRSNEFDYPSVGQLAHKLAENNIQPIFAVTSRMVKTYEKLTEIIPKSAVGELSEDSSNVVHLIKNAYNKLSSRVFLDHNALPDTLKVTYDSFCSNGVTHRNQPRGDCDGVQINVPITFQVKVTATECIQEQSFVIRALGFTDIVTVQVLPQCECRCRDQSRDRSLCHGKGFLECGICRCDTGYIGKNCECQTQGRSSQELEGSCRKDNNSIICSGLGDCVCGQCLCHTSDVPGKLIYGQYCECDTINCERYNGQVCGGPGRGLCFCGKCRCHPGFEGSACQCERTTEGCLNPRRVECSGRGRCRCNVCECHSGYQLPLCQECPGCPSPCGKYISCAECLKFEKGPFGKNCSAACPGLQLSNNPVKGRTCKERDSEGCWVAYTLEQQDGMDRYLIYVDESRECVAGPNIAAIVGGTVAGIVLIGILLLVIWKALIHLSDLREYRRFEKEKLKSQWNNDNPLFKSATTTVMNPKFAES
Protocol: FIG. 3: Magnesium regulates LFA-1 mediated T cell activation and cytotoxicity as well BiTE- and CAR T-cell functionality. (a) Glycolytic switch of murine WT and LFA-1^-/- CTLs upon injection of anti-CD3/28 Ab in medium containing 1.2 mM Mg^2+ and 0 mM Mg^2+, presented as quantification of summarized data with n=4 mice. (b) Calcium flux in WT and LFA-1^-/- Jurkat T cells stimulated with anti-CD3 Ab in 1.2 mM and 0 mM Mg^2+ medium, respectively. Cells were loaded with Fluo4, and signal intensity as recorded by plate reader, was normalized to unstimulated baseline values. […] Quantified results of n=3 mice with 3 technical replicates each. […] The effector to target cell ratio was 3:1. Results are quantified of n=3 mice with 3 technical replicates each. (e) Representative CD11a (LFA-1) surface expression on human naïve and EM CD8 T cells, PHA T cell blasts and REP T cells, assessed by flow cytometry. […] The effector to target cell ratio was 1:1. Data is presented as quantified results of n=5 healthy donors (f, g, h), n=3 healthy donors with 2 technical replicates each or n=1 healthy donor with 4 technical replicates (j). […] The effector to target cell ratio was 1:1. Data is presented as quantified results of n=1 healthy donor with 4 technical replicates. […] (n) Representative histogram of CD11a expression on PHA-blasts, untransduced T cells as well anti-CD19 expressing CAR T cells. […] Pooled results of n=6 from 2 independent experiments are shown. (p) Abundance of IFNγ in cell culture supernatants corresponding to the conditions depicted in (o) at 24 hours was determined by ELISA (n=8, 3 independent experiments). (q) Tumor growth curves of mice placed on either Mg^2+-depleted diet or respective control diet and treated with either anti-PSMA CAR T cells, untransduced T cells or saline solution. Representative of n=2 independent experiments with n=6 mice per group. REP […] target cells in flat bottom 96 well-plate, if not indicated otherwise, at a 1:1 ratio (4-6×10^4 each). Optimal ratio had been titrated for each donor beforehand. […]

LFA-1 [2] = molecular target: T1, LFA-1; test: Co-culture assay with Blinatumomab, LFA-1 head-piece opening on PHA-blasts; format: cell-based; conditions: 30 min co-culture with Ramos cells; Blinatumomab 300 pg ml^−1; ±Mg^2+
Protocol: FIG. 3: Magnesium regulates LFA-1 mediated T cell activation and cytotoxicity as well BiTE- and CAR T-cell functionality. (a) Glycolytic switch of murine WT and LFA-1^−/− CTLs upon injection of anti-CD3/28 Ab in medium containing 1.2 mM Mg^2+ and 0 mM Mg^2+, presented as quantification of summarized data with n=4 mice. (b) Calcium flux in WT and LFA-1^−/− Jurkat T cells stimulated with anti-CD3 Ab in 1.2 mM and 0 mM Mg^2+ medium, respectively. Cells were loaded with Fluo4, and signal intensity as recorded by plate reader, was normalized to unstimulated baseline values. […] Quantified results of n=3 mice with 3 technical replicates each. […] Results are quantified of n=3 mice with 3 technical replicates each. (e) Representative CD11a (LFA-1) surface expression on human naïve and EM CD8 T cells, PHA T cell blasts and REP T cells, assessed by flow cytometry. […] Data is presented as quantified results of n=5 healthy donors (f, g, h), n=3 healthy donors with 2 technical replicates each or n=1 healthy donor with 4 technical replicates (j). […] Data is presented as quantified results of n=1 healthy donor with 4 technical replicates. […] Cytotoxicity is reported as total area under the curve of the fluorescence driven by incorporation of cytotoxic green reagent in dead target cells (green area per μm^2). […]

[Mg+2] [Mg^2+, Magnesium]
Extended LFA-1 conformation on REP T cells (LFA-1 [1]): significant increase of extended LFA-1
Inactive LFA-1 with bent conformation on REP T cells (LFA-1 [1]): reduced abundance of inactive, bent conformation
LFA-1 with open head-piece on REP T cells (LFA-1 [1]): significant increase
Activation-induced LFA-1 head-piece opening on PHA-blasts (LFA-1 [2]): Mg^2+-dependent
